Marks after values point to notes of the source that are not given here.

The test system of one assay is S. aureus strain AG461. Kind of assay: Time-kill experiment (Figure 1). In kind it is cell-based, Staphylococcus aureus. As to conditions: vancomycin 2 and 16 µg/ml (one and eight times MIC); three hours of contact. As for the experimental part:
The bactericidal activity of lysostaphin against S. aureus was also studied by means of time-kill experiments. In one experiment of this type, S. aureus strain AG461, a methicillin-resistant clinical isolate from Genoa, Italy, was inoculated into Mueller-Hinton broth (Difco) and grown at 37°C with gentle shaking until it reached approximately 10^8 viable cells per ml (CFU/ml), as estimated from the absorbance of the culture at 600 nm. The culture was then diluted with fresh broth to approximately 10^6 CFU/ml and 5 ml aliquots were placed in several different flasks for exposure to different concentrations of antibacterial agents. Incubation was continued, with gentle shaking, at 37°C, and samples were withdrawn at intervals for determination of viable cells. Serial 10-fold dilutions of the samples were made in sterile saline (0.9% NaCl in distilled water) and duplicate 0.1 ml aliquots of appropriate dilutions were plated on Tryptic Soy agar plates (Remel) using the agar inclusion method. (In this method, the aliquot to be plated is added to 2.5 ml of top agar, which is mixed and poured onto a plate. Top agar consisted of molten Tryptic Soy agar (Difco) diluted 2-fold with Difco Tryptic Soy broth to give a final agar concentration of 0.75%, w/v.) The plates were incubated for 24-48 hours at 36°C and the colonies were counted manually. […]

The test system of assay [1] is methicillin-resistant VISA strain of S. aureus. The assay can be described thus: Endocarditis in rabbits caused by a VISA strain. In kind it is in vivo. As to conditions: vancomycin 30 mg/kg twice daily.
A further assay has as its system S. aureus Smith. Kind of assay: Acute infection model in mice (intraperitoneal infection). In kind it is in vivo. As for the experimental part:
The efficacy of lysostaphin was compared to that of vancomycin in an acute infection model in mice. S. aureus Smith was cultured overnight, with moderate agitation, in Veal Infusion broth (Difco) and diluted in broth containing 5% hog gastric mucin (Difco). Male Swiss~Webster mice (Taconic Farms, Germantown, NY) weighing approximately 20 grams were infected intraperitoneally with 10^5-10^6 viable cells, approximately tenfold the inoculum that reproducibly killed all untreated animals within 48 h. There were six mice in each treatment group. Lysostaphin was administered intravenously (in 0.1 ml 5% dextrose for injection) or subcutaneously (in 0.2 ml), within 10 min of infection. Vancomycin was administered subcutaneously.

Assay [2] deals with methicillin-resistant S. aureus strain (MRSA 27619). Kind of assay: Experimental aortic valve endocarditis in rabbits. In kind it is in vivo. As to conditions: vancomycin 30 mg/kg twice daily iv, three days. As for the experimental part:
Aortic valve endocarditis was established in New Zealand white rabbits weighing approximately 3 kg. Rabbits were anesthetized and the right carotid artery surgically exposed and cannulated with a polyethylene catheter which was advanced into the left ventricle of the heart. After at least 24 h, the rabbits were infected intravenously with 10^6-10^7 cells of a methicillin-resistant S. aureus strain (MRSA 27619). Twenty-four hours later, the animals were randomly assigned to different treatment groups: untreated control (9 rabbits); positive control, vancomycin 30 mg/kg twice daily (15); lysostaphin 5 mg/kg three times daily (11); lysostaphin 5 mg/kg once daily (10); lysostaphin 5 mg/kg once daily + vancomycin 30 mg/kg twice daily (11). Any rabbits whose infection was not confirmed by pre-treatment blood culture were eliminated.
All treatments were intravenous and were carried out for three days. The state of health of the rabbits was assessed at intervals. The rabbits were sacrificed 18 h after the last treatment. Aortic vegetations were removed and weighed and processed to determine the number of viable bacteria, expressed as log10CFU/gram. The limit of detection is 10^2 CFU/gram (log10CFU/gram=2.0). The mean titers of bacteria per gram were compared by one-way analysis of variance. The Student-Newman-Keuls test was used to adjust for multiple comparisons. […]

In the case of `CN[C@H](CC(C)C)C(=O)N[C@H]1C(=O)N[C@@H](CC(N)=O)C(=O)N[C@H]2C(=O)N[C@H]3C(=O)N[C@H](C(=O)N[C@H](C(=O)O)c4cc(O)cc(O)c4-c4cc3ccc4O)[C@H](O)c3ccc(c(Cl)c3)Oc3cc2cc(c3O[C@@H]2O[C@H](CO)[C@@H](O)[C@H](O)[C@H]2O[C@H]2C[C@](C)(N)[C@H](O)[C@H](C)O2)Oc2ccc(cc2Cl)[C@H]1O` [vancomycin], the bactericidal action entry in the assay with S. aureus strain AG461 is listed as “very little killing of the bacteria”. The same molecule displayed a CFU/g vegetation in assay [1] (expressed as log10 of the mean) of 6.95 CFU/g vegetation. Moreover, the sterile/total vegetations in assay [1] is recorded as 0/13. The “% survival” value in the assay with S. aureus Smith (0.63 mg/kg sc) was 0%; in the assay with S. aureus Smith (1.25 mg/kg sc) it was 83%; with S. aureus Smith (2.5 mg/kg sc), 100%; in the assay with S. aureus Smith (5 mg/kg sc) it was 100%; in the assay with S. aureus Smith (Table 4 experiment, 0.63 mg/kg, route not given), 0%; in the assay on S. aureus Smith (Table 4 experiment, 1.25 mg/kg, route not given), 83%. The “% survival” value with S. aureus Smith (Table 4 experiment, 2.5 mg/kg, route not given) turned out to be 100%. Besides, the “Mean log10CFU/gram of vegetation ± standard deviation” value in assay [2] is listed as 5.91 ± 1.67^a log10CFU/gram. In assay [2], the “Number of sterile vegetations /total animals treated” value was 0/15.

The values above are taken from patent publication EP1671644A2, “Pharmaceutical compositions containing Lysostaphin alone or in combination with an antibiiotic for the treatment of Staphylococcal infections” (priority 1997, dated 1999).
